Assay results from US9688659B2, “Deuterated compounds for treating hematologic malignancies, and compositions and methods thereof” (NeuForm Pharmaceuticals, Inc., priority 2015, dated 2017).

Experiments:
[1] = Drug metabolism study with rat and human liver microsomes fortified with NADPH; type: in vitro ADME; details: 10 μM, 1 mg/mL protein, 37° C., 60 minutes
Protocol: This study was carried out to evaluate drug metabolism of the test compounds by rat and human microsomes. Test compounds were incubated with liver microsomes of rat (BioreclamationIVT, Lot# NNK) and human (BioreclamationIVT, Lot# HPG) at 37° C. for 60 minutes. The substrate compound concentration was at 10 μM and final protein concentration in incubation mixtures was 1 mg/mL. Reaction was stopped by adding three fold acetonitrile to the reaction mixture. The samples were vortexed and centrifuged to precipitate the proteins. The supernatants were transferred to clean tubes for drying under a stream of N2. The dried residues were reconstituted with 30% acetonitrile. Aliquots were injected into an LC/UV/MS system for metabolite ID and profiling. The LC/UV/MS system was Agilent 1100 HPLC (pumps, autosampler and PDA) interfaced to LTQ ion trap mass spectrometer (ThermoFinnigan). HPLC column was Luna C18(2) column, 250×2.0 mm, 5 The HPLC mobile phase gradient system were water and acetonitrile with 0.05% trifluoroacetic acid in both solvents.
The experimental data indicated oxidation (hydroxylation) and de-alkylation were two of major metabolism paths for enasidenib and D8-enasidenib. For oxidation on aromatic ring, the molecular weights of hydroxylation products were the original ones plus an oxygen (+16). The C—H bond of enasidenib is replaced by C—OH. For oxidation on side chains, the molecular weights of hydroxylation products are different for enasidenib vs. D8-enasidenib. For enasidenib, the C—H bond is also replaced by C—OH and the difference in molecular weights is 16. However, since D8-enasidenib loses a deuterium due to hydroxylation (C-D is replaced by C—OH), the difference of its molecular weight to the original is 15 (that is +O+H−D=15). (FIG. 2) Thus, the hydroxylation products for aromatic ring and side chain for enasidenib and D8-enasidenib can be identified.

[2] = In vivo pharmacokinetic study on cynomolgus monkeys, intravenous; details: for AUC Differentiation (%): D8-enasidenib vs enasidenib; for AUC: cynomolgus monkey, plasma, iv, 1 mg/kg
Protocol: Test compounds were dissolved to yield a final concentration at 0.2 mg/mL. The study conducted formulation analysis by HPLC. The four animals assigned to the study had body weights within ±20% of the mean body weight. The study was conducted in a cross-over matter with four phases to minimize individual difference. The dose level was 1 mg/Kg and the drug was administrated through intravenous (IV) route.
Blood samples (approximately 1.2 mL/sample) were collected from the […] vein at appropriate time points. Samples were placed in tubes containing sodium heparin and stored on ice until centrifuged. Blood samples were collected pre-dose and post-dose at post-dose 2 minutes, 5 minutes, 15 minutes, 30 minutes, 1 hour, 2 hours, 3 hours, 4 hours, 6 hours, 8 hours and 24 hours. The blood samples were centrifuged at approximately 8,000 rpm for 6 minutes at 2-8° C. Plasma samples were then collected and stored frozen at approximately −80° C. until analysis. The bioanalytical work was performed using a LC-MS/MS system.

[3] = target: T1, IDH2 R140Q (Homo sapiens, UniProt P48735, R140Q); assay: IC50 measurement against IDH2 R140Q (diaphorase/resazurin detection); type: biochemical
T1 sequence (P48735 40-452 R140Q): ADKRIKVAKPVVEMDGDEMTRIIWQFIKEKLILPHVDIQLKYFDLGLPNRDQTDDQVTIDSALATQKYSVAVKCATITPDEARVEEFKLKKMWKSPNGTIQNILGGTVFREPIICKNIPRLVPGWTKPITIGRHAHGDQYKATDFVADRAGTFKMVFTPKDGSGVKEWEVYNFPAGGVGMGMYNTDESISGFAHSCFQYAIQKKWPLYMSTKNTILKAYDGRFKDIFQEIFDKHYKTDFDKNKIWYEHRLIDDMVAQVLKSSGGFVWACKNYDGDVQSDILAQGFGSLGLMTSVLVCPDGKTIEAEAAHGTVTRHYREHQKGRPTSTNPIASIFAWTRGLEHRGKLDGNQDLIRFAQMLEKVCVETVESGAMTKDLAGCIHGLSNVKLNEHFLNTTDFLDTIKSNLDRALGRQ
Protocol: Compounds were tested in 10-dose IC50 mode with 3-fold serial dilution at a starting concentration of 10 μM. Substrate and co-factor were 8000 μM α-Ketoglutarate and 15 μM NADPH (reduced form of nicotinamide adenine dinucleotide phosphate). The reaction was carried out by mixing compound solutions with enzyme (IDH2 R140Q) and pre-incubated for 60 minutes. Then a four-fold substrate mixture was delivered to initiate the reaction. The solutions were incubated for 45 minutes at room temperature. Detection was performed using diaphorase and resazurin and measured in Envision (Perkin-Elmer). (Ex/Em=535/590 nm).

[4] = Average of four animals, 1 mg/Kg IV, monkey
[5] = animal MK-101, 1 mg/Kg IV, monkey
[6] = animal MK-201, 1 mg/Kg IV, monkey
[7] = animal MK-301, 1 mg/Kg IV, monkey
[8] = animal MK-401, 1 mg/Kg IV, monkey

Compound: [2H]C([2H])([2H])C(O)(C([2H])([2H])[2H])C([2H])([2H])Nc1nc(Nc2ccnc(C(F)(F)F)c2)nc(-c2cccc(C(F)(F)F)n2)n1 [D8-Enasidenib]
- formation of hydroxylation product on aromatic ring compared to enasidenib ([1]; FIG. 3): similar
- hydroxylation on the side chain compared to enasidenib ([1]; FIG. 3): greatly reduced
- formation of de-alkylation product compared to enasidenib ([1]; FIG. 4): significantly slowed down
- AUC Differentiation (%) ([2]; Average): 62.0%
- AUC Differentiation (%) ([2]; animal MK-101): 15.3%
- AUC Differentiation (%) ([2]; animal MK-201): 69.1%
- AUC Differentiation (%) ([2]; animal MK-301): 140%
- AUC Differentiation (%) ([2]; animal MK-401): 23.5%
- AUC [2, 4]: 7900 ng·h/mL
- AUC [2, 5]: 8970 ng·h/mL
- AUC [2, 6]: 5810 ng·h/mL
- AUC [2, 7]: 10300 ng·h/mL
- AUC [2, 8]: 6530 ng·h/mL
- DMPK property over enasidenib (drug exposure AUC and half-life) ([2]; monkey, 1 mg/Kg IV): superior DMPK property over enasidenib
- IC50 [3]: 360 nM
- IC50 difference from that of enasidenib [3]: ≤ 10%

Compound: CC(C)(O)CNc1nc(Nc2ccnc(C(F)(F)F)c2)nc(-c2cccc(C(F)(F)F)n2)n1 [Enasidenib, enasidenib, reference compound]
- AUC [2, 4]: 5200 ng·h/mL
- AUC [2, 5]: 7780 ng·h/mL
- AUC [2, 6]: 3440 ng·h/mL
- AUC [2, 7]: 4290 ng·h/mL
- AUC [2, 8]: 5290 ng·h/mL
- IC50 [3]: 362 nM
